# Test results taken from US12493040B2, “Cancer detection method using sense of smell of nematode” (HIROTSU BIO SCIENCE INC., priority 2013, dated 2025).
# Legend:
# [1] = test system: nematodes (C. elegans); conditions: sri-14 mutant; 4M NaCl
# Excerpt: The present inventor has used 4 M NaCl for osmotic stimulus, and has assayed an osmotic pressure avoidance behavior, as previously reported (38).
# [2] = test system: AWB neurons; experiment: Calcium imaging (YC3.60, microfluidic device) of AWB neurons to diacetyl; type: in vivo, Caenorhabditis elegans
# Description: (§1) In order to monitor the response of the AWA, AWB, AWC and ASH neurons, the present inventor has produced strains expressing YC3.60, using odr-10, str-1, odr-3, and sra-6 promoters (11, 15, 20, and 45), respectively. As previously reported (33, 46, 47), calcium imaging was carried out using a microfluidic device. In an experiment using such a microfluidic device, a nematode was captured by a microchannel such that the nose of the nematode was exposed to running water containing a solution of diacetyl [10^−5-diluted (low concentration) and 10^−3-diluted (high concentration)], or a solution with no smell, and thus, each nematode was immobilized. The room temperature was set from 20° C. to 23° C. The fluorescence image of YC3.60 was taken using Zeiss Axioplan 2 comprising 40× objective lens and a 3CCD digital camera (C7780, Hamamatsu Photonics). All images were recovered at an exposure time of 200 ms. The time stacks of AWA, AWB, AWC, and ASH cell bodies were captured, and thereafter, using AquaCosmos software (ver. 2.6, Hamamatsu Photonics), the emission ratio between a yellow fluorescent protein (YFP) and a cyan fluorescent protein (CFP) was analyzed. This ratio was calculated as YEP intensity/CFP intensity (R), and the average ratio in 10-second window (−10 to 0 seconds) was set as RO.
# [3] = test system: nematodes (C. elegans); experiment: Chemotaxis assay of wild-type, mutant, neuron-specific knockdown, neuron-ablated or interneuron-inhibited nematodes to odorants; type: in vivo, Caenorhabditis elegans
# Description: Except for the eri-1 mutant that was cultured with Escherichia coli (E. coli) OP50, the nematodes (C. elegans) were cultured at 20° C. under standard conditions in a nematode growth medium (NGM) plate (36) comprising Escherichia coli NA22 as a food source. The used wild-type nematodes were of a Bristol N2 strain. As other nematode strains, GR1373: eri-1 (mg366), VC2123: sri-14 (ok2865), CX3410: odr-10 (ky225), and MT7929: unc-13 (e51) were used.
# (§2) Nine adult eri-1 mutants were placed on an NGM plate containing isopropyl 1-D-1-thiogalactopyranoside (0.19 g/L), ampicillin (60 mg/L), and Escherichia coli (E. coli), and were then cultured for 4 days. Subsequently, the adult worms were used in a chemotaxis assay. The chemotaxis assay was carried out as previously reported (6, 17). In the chemotaxis assay, the present inventor has used 30 to 50 worms in each experiment in which 1 μl of 10^−3- or 10^−4-diluted odorant (low concentration), or 1 and 5 μl of undiluted odorants (high concentration) were used.
# A gene to knock down the function of sri-14 in specific neurons was constructed, as previously reported (24). The target region of sri-14 (a 1.6-kb genome sequence) was amplified using the following two primers: […]
# The gene expression of ASH was carried out using a sra-6 (20) promoter, and that of AWC was carried out using ceh-36 (39) and srd-17 promoters.
# The present inventor has used mouse caspase-1 (mCasp1) for ablation of the AWA, AWB, AWC and ASH neurons. mCasp1 was each expressed by odr-10 (11), str-1 (15), ceh-36 (39), and sra-6 (20) promoters, respectively. Moreover, for inhibition of interneurons, unc-103 (gf) was used. The AIA-, AIB-, AIY-, or AIZ-specific expression of the unc-103 (gf) was carried out using a gcy-28.d (29), npr-9 (40), ttx-3 (41, 42), or lin-11 (43, 44) promoter, respectively.
# Total RNA, which had been isolated using PureLink RNA Minikit (Ambion), was converted to cDNA by ReverTra Ace qPCR master mix using gDNA Remover (Toyobo) in accordance with the instructions made by the manufacturer. The sri-14 cDNA was amplified using the following two primers, was then digested with Nhe I and Kpn I, and was then inserted into a pPD-DEST vector (Invitrogen): […]
# [4] = test system: RNAi-treated eri-1 (mg366) nematodes; experiment: RNAi screening of olfactory receptor genes: chemotaxis assay of RNAi-treated nematodes to odorants; type: in vivo, Caenorhabditis elegans; conditions: for chemotaxis index: low concentration of attractant
# Description: The RNAi assay was carried out by performing an RNAi method involving the feeding (feeding RNAi method) of eri-1 (mg366) (19), using an Ahringer library (37).
# as §2
# The z score and a control value in each single test from 2SD were calculated in all days (Table 3) or every day. The z score was used as a threshold indicating a great difference (−1.96 and 1.96, P<0.05). […] Accordingly, the present inventor has used the z score±1 (−0.96 and 0.96, P<0.33) as a weaker threshold.
# [5] = test system: AWC neurons; experiment: Calcium imaging (YC3.60, microfluidic device) of AWC neurons to diacetyl; type: in vivo, Caenorhabditis elegans; conditions: wild-type; removal of high concentration of diacetyl (10^−3 diluted)
# Description: as §1
# [6] = test system: ASH neurons; experiment: Calcium imaging (YC3.60, microfluidic device) of ASH neurons to diacetyl; type: in vivo, Caenorhabditis elegans
# Description: as §1
# [7] = test system: AWA neurons; experiment: Calcium imaging (YC3.60, microfluidic device) of AWA neurons to diacetyl; type: in vivo, Caenorhabditis elegans
# Description: as §1
# [8] = low (10^−5 diluted) and high (10^−3 diluted) concentration of diacetyl
# [9] = high concentration of diacetyl (5 μl, undiluted)
# [10] = unc-103 (gf) expression, high concentration of diacetyl (5 μl, undiluted)
# [11] = high concentration of diacetyl (10^−3 diluted)
# [12] = low concentration of diacetyl (10^−5 diluted)
smiles,measurement,setting,value
[Cl-].[Na+] [NaCl],avoidance behavior to high osmotic stimulus,[1],normal avoidance behavior
CC(=O)C(C)=O [diacetyl],Ca2+ response of wild-type AWB neurons after removal of the smell,[2]; [8],slight Ca2+ response
same,Ca2+ response of AWB neurons with ectopic expression of SRI-14,"[2]; removal of high concentration of diacetyl (10^−3 diluted), vs wild-type AWB",significantly enhanced
same,Ca2+ response of AWB neurons with ectopic expression of SRI-14,[2]; removal of low concentration of diacetyl (10^−5 diluted),did not change the response
same,response of AWA and ASH double-ablated nematodes,[3]; high concentration of diacetyl,more severe defect
same,avoidance behavior of ASH-ablated nematodes,[3]; [9],avoidance behavior was inhibited
same,avoidance defect of sri-14 mutant with ASH-specific expression of sri-14 cDNA,[3]; [9],rescued
same,"avoidance defect of sri-14 mutant with AWA-, AWB- or AWC-specific expression of sri-14 cDNA",[3]; [9],partially rescued or was not rescued
same,avoidance of AWA-ablated nematodes,[3]; [9],decrease in the avoidance
same,chemotaxis of AWB- or AWC-ablated nematodes,[3]; [9],did not exhibit a defect in the chemotaxis
same,attraction of AWA-ablated nematodes,[3]; low concentration of diacetyl (10^−3 diluted),decrease in the attraction
same,attraction of nematodes with interneurons inhibited,"[3]; low concentration of diacetyl (10^−3 diluted), except for MY",not influenced
same,chemotaxis of odr-10 mutant,[3]; high concentration of diacetyl,normal chemotaxis
same,chemotaxis of odr-10 mutant,[3]; low concentration of diacetyl,reduced attraction
same,avoidance response of sri-14 mutant,"[3]; sri-14 (ok2865) mutant, high concentration of diacetyl",defect in the avoidance response
same,reaction of sri-14 loss-of-function mutant,"[3]; sri-14 mutant, low concentration of diacetyl",normal reaction
same,"response of nematodes with AIA, AIY or AIZ interneurons inhibited",[3]; [10],from an avoidance response to an attraction response
same,response of nematodes with AIB interneurons inhibited,[3]; [10],attenuated the avoidance response
same,"avoidance from diacetyl, ASH-specific knockdown of sri-14","[3]; wild-type nematode, ASH-specific RNAi of sri-14, high concentration of diacetyl (5 μl, undiluted)",defect in the avoidance
same,"avoidance from diacetyl, AWC-specific knockdown of sri-14","[3]; wild-type nematode, AWC-specific RNAi of sri-14, high concentration of diacetyl (5 μl, undiluted)",abnormality was not observed
same,avoidance from diacetyl after RNAi of sri-14,"[4]; RNAi of sri-14, high concentration of diacetyl (5 μl, undiluted)",significantly strong defect in the avoidance
same,response (chemotaxis) to diacetyl after knockdown of odr-10,"[4]; eri-1 mutant, RNAi of odr-10, low concentration (10; diluted) of diacetyl",specific defect in the response
same,"avoidance behavior from diacetyl after RNAi of srh-25, srh-79, srh-216 or srh-281","[4]; high concentration of diacetyl (5 μl, undiluted), repeated assay",significant and reproducible defect
same,Ca2+ response of AWC neurons after removal of diacetyl,[5],a Ca2+ response occurs
same,"Ca2+ response of ASH neurons, odr-10 mutant",[6]; [11],normally induced
same,"Ca2+ response of ASH neurons, sri-14 mutant",[6]; [11],significantly reduced
same,"Ca2+ response of ASH, ASH-specific knockdown of sri-14 in wild-type nematodes",[6]; [11],reduced
same,"calcium response of ASH neurons, AWA-ablated nematodes",[6]; [11],enhances the calcium response
same,defect in ASH response of sri-14 mutant with ASH-specific expression of wild-type sri-14,[6]; [11],rescued
same,"Ca2+ response of ASH neurons, wild-type nematodes",[6]; [8],Ca2+ response only to a high concentration of diacetyl was detected
same,"calcium response of ASH neurons, unc-13 mutants vs wild type","[6]; unc-13(e51), high concentration of diacetyl (10^−3 diluted)",significantly larger
same,"calcium response of AWA neurons, odr-10 mutants and wild-type nematodes",[7]; [11],normally responded
same,"calcium response of AWA neurons, odr-10 mutants",[7]; [12],did not respond
same,"calcium response of AWA neurons, wild-type nematodes or sri-14 mutants",[7]; [12],intracellular calcium was increased
CC(C)CCO [isoamyl alcohol],chemotaxis index,[4]; srh-10 RNAi-treated nematodes,−0.12
same,chemotaxis index,[4]; srh-11 RNAi-treated nematodes,0.05
same,chemotaxis index,[4]; srh-15 RNAi-treated nematodes,0.59
same,chemotaxis index,[4]; srh-16 RNAi-treated nematodes,0.86
same,chemotaxis index,[4]; srh-18 RNAi-treated nematodes,0.67
same,chemotaxis index,[4]; srh-19 RNAi-treated nematodes,0.67
same,chemotaxis index,[4]; srh-22 RNAi-treated nematodes,0.58
same,chemotaxis index,[4]; srh-23 RNAi-treated nematodes,0.54
same,chemotaxis index,[4]; srh-24 RNAi-treated nematodes,0.58
same,chemotaxis index,[4]; srh-214 RNAi-treated nematodes,0.63
same,chemotaxis index,[4]; srh-216 RNAi-treated nematodes,0.76
same,chemotaxis index,[4]; srh-217 RNAi-treated nematodes,−0.12
same,chemotaxis index,[4]; srh-220 RNAi-treated nematodes,0.81
same,chemotaxis index,[4]; srh-222 RNAi-treated nematodes,0.80
same,chemotaxis index,[4]; srh-223 RNAi-treated nematodes,0.51
same,chemotaxis index,[4]; srh-227 RNAi-treated nematodes,0.43
same,chemotaxis index,[4]; srh-229 RNAi-treated nematodes,−0.20
same,chemotaxis index,[4]; srh-233 RNAi-treated nematodes,0.36
same,chemotaxis index,[4]; srh-235 RNAi-treated nematodes,0.64
same,chemotaxis index,[4]; srh-236 RNAi-treated nematodes,0.41
same,chemotaxis index,[4]; srh-239 RNAi-treated nematodes,0.57
same,chemotaxis index,[4]; srh-241 RNAi-treated nematodes,0.63
same,chemotaxis index,[4]; srh-243 RNAi-treated nematodes,0.46
same,chemotaxis index,[4]; srh-244 RNAi-treated nematodes,0.74
same,chemotaxis index,[4]; srh-247 RNAi-treated nematodes,0.60
same,chemotaxis index,[4]; srh-250 RNAi-treated nematodes,0.47
same,chemotaxis index,[4]; srh-251 RNAi-treated nematodes,0.75
same,chemotaxis index,[4]; srh-252 RNAi-treated nematodes,0.59
same,chemotaxis index,[4]; srh-258 RNAi-treated nematodes,0.78
same,chemotaxis index,[4]; srh-261 RNAi-treated nematodes,0.51
same,chemotaxis index,[4]; srh-264 RNAi-treated nematodes,0.61
same,chemotaxis index,[4]; srh-266 RNAi-treated nematodes,0.25
same,chemotaxis index,[4]; srh-274 RNAi-treated nematodes,0.44
same,chemotaxis index,[4]; srh-275 RNAi-treated nematodes,0.39
same,chemotaxis index,[4]; srh-276 RNAi-treated nematodes,0.58
same,chemotaxis index,[4]; srh-277 RNAi-treated nematodes,0.54
same,chemotaxis index,[4]; srh-279 RNAi-treated nematodes,0.53
same,chemotaxis index,[4]; srh-281 RNAi-treated nematodes,0.51
same,chemotaxis index,[4]; srh-282 RNAi-treated nematodes,0.52
same,chemotaxis index,[4]; srh-283 RNAi-treated nematodes,0.34
same,chemotaxis index,[4]; srh-284 RNAi-treated nematodes,0.73
same,chemotaxis index,[4]; srh-291 RNAi-treated nematodes,0.80
same,chemotaxis index,[4]; srh-292 RNAi-treated nematodes,0.43
same,chemotaxis index,[4]; srh-293 RNAi-treated nematodes,0.71
same,chemotaxis index,[4]; srh-297 RNAi-treated nematodes,0.42
same,chemotaxis index,[4]; srh-298 RNAi-treated nematodes,0.68
same,chemotaxis index,[4]; srh-308 RNAi-treated nematodes,0.56
